Source: patent US7034019B2, “Prodrugs of HIV replication inhibiting pyrimidines” (Janssen Pharmaceutica N.V., priority 2000, dated 2006)

Assays:
HIV [1] = assay: anti-HIV activity in MT-4 cells (MTT, HIV-induced cytopathic effect), prior to incubation; assay type: cell-based; conditions: Human immunodeficiency virus 1, MT4; prior to incubation in subcellular liver fractions; HIV-infected MT-4 cells; read-out: IC50 before
Method: (§1) The metabolism of the present compounds was studied in subcellular liver fractions (1200×g) of rat, dog or human. The compounds were incubated at a final […] concentration of 30 μM; incubations were performed up to 120 minutes at a final protein concentration equivalent to 1 mg/ml microsomal proteins. Reactions were stopped by the addition of an equal volume (2 ml) of […]. Samples were stored at ≦−18° C. until analysis. […] Table 2 lists IC50 values prior to and after incubation in subcellular liver fractions.
(§2) A rapid, sensitive and automated assay procedure was used for the in vitro evaluation of anti-HIV agents. […] The viability of both HIV- and mock-infected cells was assessed spectrophotometrically via the in situ reduction of 3-(4,5-dimethylthiazol-2-yl)-2,5-diphenyltetrazolium bromide (MTT). […] The percent protection achieved by the compound in HIV-infected cells was calculated by the following formula:
(§3) [formula] whereby (ODT)HIV is the optical density measured with a given concentration of the test compound in HIV-infected cells; (ODC)HIV is the optical density measured for the control untreated HIV-infected cells; (ODC)MOCK is the optical density measured for the control untreated mock-infected cells; all optical density values were determined at 540 nm. […]

HIV [2] = assay: anti-HIV activity (MT-4/MTT) of incubates after incubation in dog subcellular liver fractions; assay type: cell-based; conditions: Human immunodeficiency virus 1, MT4, 2 h; after incubation in dog subcellular liver fraction, 120 minutes; MT-4 cells
Method: as §1, §2, §3

HIV [3] = assay: anti-HIV activity (MT-4/MTT) of incubates after incubation in rat subcellular liver fractions; assay type: cell-based; conditions: Human immunodeficiency virus 1, MT4, 2 h; after incubation in rat subcellular liver fraction, 120 minutes; MT-4 cells
Method: as §1, §2, §3

HIV [4] = assay: anti-HIV activity (MT-4/MTT) of incubates after incubation in human subcellular liver fractions; assay type: cell-based; conditions: after incubation in human subcellular liver fraction, MT-4 cells
Method: as §1, §2, §3

| Compound | IC50 (HIV [1]) | IC50 (HIV [2]) | melting point | IC50 (HIV [3]) | IC50 (HIV [4]; Human immunodeficiency virus 1, MT4, 0.5 h, 30 minutes) | IC50 (HIV [4]; Human immunodeficiency virus 1, MT4, 2 h, 120 minutes) |
| --- | --- | --- | --- | --- | --- | --- |
| Cc1cc(C#N)cc(C)c1Oc1nc(N(COCCO)c2ccc(C#N)cc2)ncc1Br [Compound 3] | > 1000 nM | 809 nM | 199 to 200 °C |  |  |  |
| CCOCN(c1ccc(C#N)cc1)c1ncc(Br)c(Oc2c(C)cc(C#N)cc2C)n1 [Compound 1] | > 1000 nM | 138 nM | 181 to 182 °C | 175 nM | 293 nM | 165 nM |
